Tested on: splenocytes of immunized HLA DR3 tg mice
Experiment: Th1/Th2/Th17 cytokine bead array
Type: cell-based, mouse (HLA DR3 transgenic)
Details: ConA 2 μg/mL, positive control, consistent between arms

Concanavalin A [ConA]
IFNγ concentration above background (highest of panel): 260 pg/mL
IL-4 concentration above background (lowest of panel): 16 pg/mL
